# Data published in a melting point compilation (Tetko et al.).
row,melting point [°C],Structure (SMILES)
1,179,N#CC1=C(C#N)C(=O)C(NCCCc2ccccc2)=C(Cl)C1=O
2,229 to 230,CCCCCCCCCCCCCCCC(=O)OCC(COP(=O)([O-])OCC[N+](C)(C)C)OC(=O)CCCCCCCCCCCCCCC (stereo unspecified)
3,83 to 84,Brc1ccc(-c2ccco2)cc1
4,204 to 205,CC1=NN(CN2CCCCC2)C(=O)/C1=N\Nc1cccc(O)c1
5,164,COc1cc2c(c(Oc3c(OC)cc4c(c3O)C(CC(C)C)N(C)CC4)c1O)C(CC(C)C)N(C)CC2 (stereo unspecified)
6,57,Cc1cc(-c2onc(C)c2C(=O)Cl)no1
7,221 to 222,CC1=C(C=NNC(N)=O)C(=O)C(C(C)C)C=C1 (stereo unspecified)
8,270,N#C/C(=N\Nc1c(Br)cc(Br)cc1Br)c1nc2ccccc2[nH]1
9,107,CC/C(=N\O)C1=CC2(C)CCC1C2(C)C (stereo unspecified)
10,53,CCOCCC(OCC)OCC
11,-26,CCCCCCCCCOC(C)=O
12,75 to 76,CNC(=O)c1ccccc1N
13,0,BrC(Br)C(Br)Br
14,49.5,CC(Cl)(Cl)C(=O)OCCOc1cc(Cl)c(Cl)cc1Cl
15,147 to 150,CC(=CNNc1nc(C)cc(C)n1)c1cccnc1
16,195,CCOC(=O)C1=C(C)NC(=O)NC1c1cccc(OC)c1OC (stereo unspecified)
17,214 to 216,CC(=CNNc1nc(C)cc(C)n1)c1ccncc1
18,234 to 236,O=C(O)c1ccc(-c2ccccc2F)cc1
19,236,BrC(=C(\Br)c1ccccc1)/C(Br)=C(\Br)c1ccccc1
20,153,CCOC(=O)c1c(N)sc2c1CCN(C(=O)OC(C)(C)C)C2
21,186 to 188,COc1cc(Cl)c(NC(C)=O)c(Cl)c1
22,288,CCCCc1cc2c(O)c(C(=O)OC)cnc2cc1OCc1ccccc1
23,35,Cc1csc2ccc(Cl)cc12

row,melting point [°C],Structure (SMILES)
1,182,CN(C)c1ccc(C2(c3ccc(N(C)C)cc3)OC(=O)c3cc(N(C)C)ccc32)cc1
2,261 to 264,O=C1C=C(O)c2cccc3cccc1c23
3,171,O=C(Cl)/C=C/c1ccc(/C=C/C(=O)Cl)cc1
4,150 to 154,CSCCC(NC(=O)c1ccccc1)C(=O)O (racemic)
5,133,O=C(Nc1cc(C(F)(F)F)cc(C(F)(F)F)c1)c1cncc(Cl)n1
6,234 to 238,CC(=O)N1C(=O)N(C(C)=O)C2C1N(C(C)=O)C(=O)N2C(C)=O (stereo unspecified)
7,116 to 117,Nc1nc(-c2ccc(F)c(F)c2)cs1
8,76.5,CC(/N=N/c1cc(Cl)cc(Cl)c1O)=C(/C(=O)N1CCOCC1)N1CCOCC1
9,-28,CSCc1ccccc1
10,122,O=C(Cc1ccc(-c2ccccc2)cc1)Nc1ccccn1
11,175,OCC1CCC(n2cnc3c(O)ncnc32)O1 (stereo unspecified)
12,55 to 56,O=S(=O)(C[C@@H](COCc1ccccc1)OCc1ccccc1)c1ccccc1
13,97,CCCCC(C)CC(O)C=CC1C(O)CC(=O)C1CCCCC=CC(=O)O (stereo unspecified)
14,-38.5,CCCCCCCCOC(C)=O
15,148,O=C(CCCN1CCC(O)(c2ccc(Cl)cc2)CC1)c1ccc(F)cc1
16,230,O=C(Oc1cc(Cl)cc(Cl)c1)c1ccc(C(=O)Oc2cc(Cl)cc(Cl)c2)cc1
17,125 to 128,Cc1nn(-c2ccccc2)c(C)c1C=O
18,117 to 118,Cc1oc(-c2ccccc2)nc1CO
19,85 to 87,CCCC(=O)c1ccc(NC(C)=O)cc1O
20,72 to 75,CCOC(=O)CSc1c(C)[nH]c2ccccc12
21,187 to 189,O=C(O)c1cccnc1Oc1ccc(F)cc1
22,55,Cn1cncc1C=O
23,19,CCCCCCCCCC(=O)CCC

row,melting point [°C],Structure (SMILES)
1,220,O=C(O)CN(CCN(CC(=O)O)CC(=O)O)CC(=O)O
2,49,CCOC(=O)c1ccc(-c2ccccc2)cc1
3,127,COc1cc(C)c(Cl)cc1S(=O)(=O)Cl
4,104,COc1ccc(C2C3=C(CCCC3)OC3=C2CCCC3)cc1
5,175,O=C1/C(=N\Nc2ccc(Br)cc2)C(C(F)(F)F)=NN1c1ccccc1
6,235,COc1ccc(-c2csc(/C(C#N)=N\Nc3ccc(O)cc3)n2)cc1
7,43 to 48,Cn1nc(CO)cc1-c1ccco1
8,110,CCOC(=O)CNc1nc(Cl)nc(NC(C)C)n1
9,136,CC(=O)Oc1ccc(C(=C2CCCCC2)c2ccc(OC(C)=O)cc2)cc1
10,164,O=C1CCc2ccccc2N1
11,35 to 37,Clc1cc(Br)ccc1I
12,158,NC(=O)/C(=N\Nc1ccc(F)cc1)c1nc2ccccc2s1
13,78,CC1(O)Cc2ccccc21 (stereo unspecified)
14,188 to 192,NC(=S)CS(=O)(=O)c1ccc(Cl)cc1
15,118 to 119,COc1ccc(NC(=O)CS)cc1
16,103 to 105,CCCCCCCNC(=O)OCC1OC(OC)C(O)C(O)C1O (stereo unspecified)
17,163 to 165,O=S1(=O)CC(O)C(Cl)C1 (stereo unspecified)
18,134,NNc1ccc(Cl)cc1[N+](=O)[O-]
19,83.5,CC(=O)OCC(COC(C)=O)(COC(C)=O)COC(C)=O
20,177,CC1=C(C(=O)OC(C)C)C(c2ccccc2)NC(=S)N1 (stereo unspecified)
21,51,N#Cc1ccccc1-n1cccc1
22,225 to 229,CC(C)(C)OC(=O)NC(Cc1ccncc1)C(=O)O (stereo unspecified)
23,33.5,O=CCc1ccccc1

row,melting point [°C],Structure (SMILES)
1,146 to 148,CCCCc1ccc(NC(=O)c2ccc(OC)cc2)cc1
2,120,O=C1OC(c2ccccc2)(c2ccccc2)c2ccccc21
3,178,O=Cc1ccccc1OC1OC(CO)C(O)C(O)C1O (stereo unspecified)
4,205 to 215,O=C(O)c1cc(N(Cc2ccccc2O)Cc2cc(O)ccc2O)ccc1O
5,136,C=C1C(=CC=C2CCCC3(C)C2CCC3C(C)CCCC(C)C)CC(O)CC1O (stereo unspecified)
6,193 to 194,CC12CC(c3ccccc3)C([N+](=O)[O-])C(O1)c1ccccc1N2 (stereo unspecified)
7,95,CCCC(=O)OC1(C(=O)CCl)C(C)CC2C3CCC4=CC(=O)C=CC4(C)C3(F)C(=O)CC21C (stereo unspecified)
8,226,Brc1cncc(-c2nnn[nH]2)c1
9,123,COC(=O)c1cccc(C(=O)OC)n1
10,105 to 108,CSCCC(NS(=O)(=O)c1ccc(C)cc1)C(=O)O (racemic)
11,227 to 232,O=CC(C=O)c1ccncn1
12,153,CCCCOc1ccc(CC(=O)NO)cc1
13,175 to 176,COc1ccc(C(N)=NO)c2ccccc12
14,125,O=C(O)C1=CCCc2ccccc21
15,38 to 39.5,Cc1cncc(Oc2cccc(Br)c2)n1
16,87,CC1=Cc2ccccc2C1O (stereo unspecified)
17,96,Cc1ccc(NO)cc1
18,82,CC(=Cc1ccccc1)c1ccccc1
19,85 to 86,O=S1(=O)CCN(Cc2ccccc2)CC1
20,137,COc1cc(C2Nn3c(nnc3-c3ccccc3OC)S2)ccc1O (stereo unspecified)
21,118 to 120,CC12CC3CC(Br)(C1)CC(C(=O)O)(C3)C2 (stereo unspecified)
22,127,Cc1ccc(S(=O)(=O)c2ccccc2)cc1
23,120,Cc1nc(-c2cc(CO)no2)cs1

row,melting point [°C],Structure (SMILES)
1,-7.6,CN(c1ccccc1)c1ccccc1
2,285,Nc1ccc2cc3ccc(N)cc3nc2c1
3,288 to 289,COc1ccc(Br)c2c1C(=NNc1ccc([N+](=O)[O-])cc1[N+](=O)[O-])C2
4,94 to 97,OCc1ccc(-c2nccs2)cc1
5,74.5,CCCCCCCCCCCCCCCCOP(=O)(O)OCCCCCCCCCCCCCCCC
6,103,Cc1ccc(O)c(C(O)c2ccccc2)c1 (stereo unspecified)
7,130,CC(C)(C)OC(=O)N[C@H](C(=O)O)c1ccc(F)cc1
8,165 to 167,"Cc1ccc(C(=O)OC(C(=O)O)C(OC(=O)c2ccc(C)cc2)C(=O)O)cc1 (single isomer, unassigned; (+))"
9,182,[O-][n+]1nc(-n2ccnc2)nc2ccc(Cl)cc21
10,190,O=C(ON1C(=O)CCC1=O)ON1C(=O)CCC1=O
11,236,NC(=O)/C(=N\Nc1cc(Cl)c(Cl)cc1Cl)c1nc2ccccc2s1
12,51,Brc1cc(Br)ncn1
13,239,C/C(=N\NC(N)=O)C1=CC[C@]2(C)C3CCC4=C(CCC4(C)C)C3CC[C@H]2C1 (stereo partly specified)
14,183 to 187,NC(=O)c1c(F)c(F)c(N)c(F)c1F
15,115 to 118,Nc1ccc(-c2cccnc2)cc1
16,29,COC(=O)c1ccc(C)c(Cl)c1
17,57,Cc1c(S(=O)(=O)Cl)cnn1-c1ccccc1
18,143 to 146,CCOC(=O)c1sc(SC)c(S(=O)(=O)C(C)C)c1N
19,223,O=[N+]([O-])c1ccc2c(c1)-c1ccc([N+](=O)[O-])c3cccc-2c13
20,300,Nc1cc(S(=O)(=O)O)ccc1Cl

row,Structure (SMILES),melting point [°C]
1,O=C(O)C(Cl)(Cl)CCl,65.5
2,CCOC(=O)C(C)(C)C1(O)CCC2(C)C(CCC3C2CCC2(C)C(OCc4ccccc4)CCC32)C1 (stereo unspecified),147
3,O=C(O)C(O)(C(F)(F)F)C(F)(F)F,81
4,N#CCN,101
5,CC[C@H](N)P(=O)(O)O,260
6,Nc1ccc(S(=O)(=O)F)cc1,68.5
7,FC(F)=C(F)C(F)(F)F,-156
8,Cn1cc(Br)c(C(=O)Cl)n1,131 to 133
9,CC12CCC3C(CCC4CC=CCC43C)C1CCC2=O (stereo unspecified),104
10,N#CC1C(=N)Oc2c(c(=O)oc3ccccc23)C1c1ccc(Br)cc1 (stereo unspecified),254
11,O=C(Cl)C(=O)Cl,-12
12,CC1(C)C(C=C(Cl)Cl)C1C(=O)OCc1c(F)c(F)cc(F)c1F (stereo unspecified),32
13,COP(=S)(OC)Oc1ccc([N+](=O)[O-])c(C)c1,3.4
14,CC(Br)C(=O)O (stereo unspecified),25
